In publication PMC9369794 (Molecules, 2022):

Legend:
[1] = Kinetic solubility in PBS pH 7.4; assay type: physicochemical; conditions: aqueous buffer, kinetic from dmso stock, kinetic solubility after 2 h, at 37 °C in PBS, nominal 250 μM, read-out: Kin.Sol.
Protocol: On a 96-well polypropylene plate (Greiner bio-one) 7.5 μL stock solutions were added to 292.5 μL PBS (pH 7.4) to make a solution with the nominal concentration of 250 μM. For each sample 3 replicates were measured. […] After that, each sample was transferred into a filter plate (MSSBLPC, Multiscreen Filter plate, Merck kGaA) and filtered (Vaccum Manifold, Merck kGaA, Darmstadt, Germany). The filtrates were transferred into UV-Star microplates (Greiner bio-one) and acetonitrile (AcN) was added to each well to avoid precipitation. The final solvent ratio was AcN:PBS 70:30. UV-Vis spectra were collected for each replicate by a Multiskan Sky UV-plate reader (Thermo Scientific, Waltham, MA, USA) in a wavelength range of 250–700 nm, with 1 nm steps. After blank substraction, the kinetic solubility of the samples was determined based on absorption at λmax using a 5-point calibration curve for each sample recorded in 70:30 AcN:PBS solvent.
Limit of detection (LOD) and limit of quantification (LOQ) were calculated with Equations (1) and (2) respectively, based on UV-Vis spectral data:(1) LOD=3.3×σ/s (2) LOQ=10×σ/s where the σ value in the equations stands for the standard deviation of the absorption base line at 700 nm (where no sample-specific absorption was observed). The s value is the slope of the calibration curve recorded for each sample based on their absorption at λmax (Table 4.)

[2] = Water dispersibility; assay type: physicochemical; conditions: distilled water, sonication
Protocol: About 2 mg of the examined substance was dispersed in 40 mL of distilled water and the suspension was sonicated for 2 min. The addition of water was continued with 10 mL portions, after each portion the mixture was sonicated for 2 min. This process was continued till a homogenous solution was observed by naked eye. Then, the solution was let to stand for an hour to inspect any precipitate formation, but no changes occurred in any of the cases.

[3] = TEAC assay using ABTS radical; conditions: 6 min, ratio of slopes to trolox (melatonin dissolved in EtOH); for TEAC from DMSO: stock in DMSO diluted with PBS pH 7.4, 37 °C; for TEAC from THF: stock in THF diluted with PBS pH 7.4, 37 °C
[4] = Study of aggregation by UV-Vis spectrophotometry; assay type: physicochemical; conditions: for change of UV spectrum with increasing ratio of PBS: starting from THF solutions
How it was run: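 Conjugates dissolved in THF and diluted with THF or THF-PBS mixtures (1:1, 1:3) at identical carotenoid concentration; separately, 2.5∙10−4 M DMSO stocks added to PBS to final 0.3125–5 μM carotenoid. UV-Vis spectra recorded to follow band shifts and fine-structure changes; DMSO-PBS solutions also examined by DLS.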

| SMILES | solubility kinetic at 2 h [1] | Water Dispersibility [2] | TEAC from DMSO [3] | TEAC from THF [3] | change of UV spectrum with increasing ratio of PBS [4] | type of aggregates formed ([4]; from THF:aqueous solutions) |
| --- | --- | --- | --- | --- | --- | --- |
| CC1=C(/C=C/C(C)=C/C=C/C(C)=C/C=C/C=C(C)/C=C/C=C(C)/C=C/C2=C(C)C[C@@H](OC(=O)CCC(=O)O)CC2(C)C)C(C)(C)C[C@H](OC(=O)CCC(=O)O)C1 [Compound 7, Zeaxanthin bissuccinate] | 0.6 ± 0.1 µM | 1.3 mg/100 mL | 0.86 | 2.090 | did not cause much change | – |
| CC1=C(/C=C/C(C)=C/C=C/C(C)=C/C=C/C=C(C)/C=C/C=C(C)/C=C/C2=C(C)C[C@@H](OC(=O)CCC(=O)O)CC2(C)C)C(C)(C)CCC1 [Compound 8, β-Cryptoxanthin succinate] | 1.3 ± 0.1 µM | less than 0.5 mg/100 mL | – | 1.827 | bathochromic shift | J-type (head-to-tail) aggregates |
| CC1=C(/C=C/C(C)=C/C=C/C(C)=C/C=C/C=C(C)/C=C/C=C(\C)COC(=O)CCC(=O)O)C(C)(C)CCC1 [Compound 6, 8′-Apo-β-carotenol succinate] | 52.3 ± 2.4 µM | 1.5 mg/100 mL | 1.19 | 1.913 | did not cause much change | – |
